Columns and labels:
Assay type in all cases: cell-based, human
[1] = test system: transcriptional activity of 83 transcriptional regulators on the EGFP reporter; experiment: Tethered reporter assays in the presence of inhibitors; details: for effect of inhibitor on activity of the activators: 100 nM flavopiridol, 300 nM JQ1, 1 μM A-485, 2.5 μM CX-4945, 3 μM AZ191, 100 μM ABA 48 hours; for effect of inhibitor on activity of NuA4 complex interactors: 1 μM A-485 or 300 nM JQ1, e.g; call rule not given here. JAZF1 and KLF6
Description: To functionally investigate the connection between transcriptional activators and co-factors, a panel of 83 robust activators was arrayed. Their activation potential was tested using the reporter assay, but now in the presence of small-molecule inhibitors targeting multiple transcriptional co-regulators. Three kinase inhibitors targeting transcriptional kinases (flavopiridol for CDK9, CX-4945 for casein kinase 2, and AZ191 for DYRK1A and DYRK1B), and two compounds inhibiting transcriptional co-factors (A-485 for CBP/p300, and JQ1 for BET family bromodomain proteins) were employed.
(§1) Arrayed recruitment assays. Reporter cells stably co-expressing ABI-dCas9 and TetO gRNA were seeded either on 48-well or 96-well plates (Sarstedt) to reach 50-70% confluency on the day of transfection. 150 ng of each construct to be tested was transfected with polyethylenimine (PEI) at a ratio of 0.6 μl reagent. The day after transfection, recruitment was induced by treatment with ABA (100 μM). […] Inhibitors were dissolved in DMSO to a stock concentration of 10 mM. The final concentrations used were 100 nM for flavopiridol, 300 nM for JQ1, 1 μM for A-485, 2.5 μM for CX-4945 and 3 μM for AZ191. All inhibitors were a kind gift from the Structural Genomics Consortium (SGC). 48 hours after induction, cells were dissociated and resuspended in flow buffer using a liquid handing robot (TECAN) and analyzed by LSR Fortessa (BD). Cells were gated on high EBFP2 and RFP as a measure of gRNA and transfection control, respectively. Flow cytometry data was analyzed using FlowJo (v10).

[2] = test system: EGFP reporter (TetO7) in HEK293T cells; experiment: Multi-TAD effectors fused to PYL1 recruited to EGFP reporter; details: PYL1 fusion, 1 μM abscisic acid, 24 or 48 hours
Description: Multiple TADs were fused together with PYL1 and tested for transcriptional activity using the PYL1-ABI EGFP reporter system described above. The following TAD fragments were used: CITED1-8 (SEQ ID NO: 47), CITED2-12 (SEQ ID NO: 49), C3orf62-12 (SEQ ID NO: 45), BRD8-25 (SEQ ID NO: 40), ZXDC-12 (SEQ ID NO: 97), KLF7-1 (SEQ ID NO: 72), ATXN7L3-1 (SEQ ID NO: 35), FAM90A1-20 (SEQ ID NO: 60), SPDYE4-3 (SEQ ID NO: 90), YAF2-7 (SEQ ID NO: 96).
Methods: Cells were seeded on 48-well plates. Next day, after cells were between 70-90% confluent, 250 ng of each construct was transfected in each well using (Thermo Fisher Scientific, 11668019) reagent. Each construct was either directly fused TagRFP either directly fused to each component or being co-expressed from the same plasmid was used as a measure of transfection. In each experiment, the same gate for RFP+ cells were used to control for the effect of each construct's expression levels on activity. EGFP reporter cells were expanded from a clonal line to control for level of ABI-dCas9 and gRNA targeting the TetO7 sites upstream of the promoter. For the CD133 induction experiment, a 293T cell line stably expressing ABI-dCas9 and a pool of 5 gRNAs targeting the promoter were used for all activators. CD133 antibody conjugated to APC (Miltenyi Biotec, 130-113-668) was used. […]

[3] = test system: EGFP reporter (7×TetO array, basal CMV promoter) in HEK293T reporter cell line; experiment: Arrayed recruitment assay, PYL1 fusions individually recruited to reporter via ABI1-dCas9 with ABA; set-up: key to independently validated as transactivating fragment: Fragments marked with * were independently validated; details: fragment fused to PYL1, arrayed format
Excerpt: Treatment of cells with abscisic acid (ABA) induces an interaction between ABI1 and PYL1, thereby recruiting the potential transcriptional activator to a specific genomic locus defined by the guide RNA (gRNA). As a reporter, a HEK293T cell line that contains a stably integrated construct with a 7×TetO array and a basal CMV promoter driving the expression of EGFP was used (Gao et al., 2016). A monoclonal cell line that expresses ABI1-dCas9 and a single gRNA targeting TetO was generated by lentiviral infection.
as §1

[4] = test system: EGFP reporter (7×TetO array, basal CMV promoter) in HEK293T reporter cell line; experiment: TAD-seq pooled activation screen of 60-aa fragments fused to PYL1
In short: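 60-aa tiles at 20-aa steps from 75 activator proteins, C-terminally fused to PYL1, lentivirally transduced at low MOI into reporter cells co-expressing ABI-dCas9 and promoter gRNA. Recruitment induced with 100 μM abscisic acid for 48 h (DMSO control). Top 1% and next 4% GFP cells sorted; fragments quantified by sequencing, two replicates.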

For `CNC(=O)Nc1ccc2c(c1)CC[C@@]21OC(=O)N(CC(=O)N(Cc2ccc(F)cc2)[C@@H](C)C(F)(F)F)C1=O` [Fragment A-485, A-485], the “effect of inhibitor on activity of the activators” value [1] was “strongly affected the activity of some but not all transactivators”, the “effect of inhibitor on activity of CBP/p300 non-interactors” value ([1]; 1 μM A-485) was “only one of the seven non-interactors was affected” and the “effect of inhibitor on activity of KLF6” value ([1]; 1 μM A-485) was “no effect”. For the same compound, the “effect of inhibitor on activity of KLF15” value ([1]; 1 μM A-485) was “inhibited the activity of KLF15”, the “effect of inhibitor on activity of CBP/p300 interactors” value ([1]; 1 μM A-485, interactors by AP-MS and BioID) was “four of the six CBP/p300 interactors was significantly decreased” and the “effect of inhibitor on activity of NuA4 complex interactors” value [1] was “not significantly affected”. For the same compound, the “sensitivity of C3orf62-Cterm and SRF-C3orf62 reporter activation to inhibitor” value ([1]; CBP/p300 inhibition) was “highly sensitive”.

With `Cc1sc2c(c1C)C(c1ccc(Cl)cc1)=N[C@@H](CC(=O)OC(C)(C)C)c1nnc(C)n1-2` [JQ1] the “effect of inhibitor on activity of the activators” value [1] was “increase in reporter gene activity” and the “effect of inhibitor on activity of NuA4 complex interactors” value [1] was “not affected”.

`CN1CC[C@H](c2c(O)cc(O)c3c(=O)cc(-c4ccccc4Cl)oc23)[C@H](O)C1` [flavopiridol] was tested, and the “effect of inhibitor on activity of the activators” value [1] was “nearly complete loss of activity of all activators”.

For “SPDYE4-3: 60-aa TAD-seq fragment of SPDYE4; SPDYE4 activation domain (DPSPQPQSLGLKRKSEWSDESEEELEEELELERAPEPEDTWVVETLCGLKMKLKRKRASS; listed as Homo sapiens)”, the “transcriptional activation of EGFP reporter by TAD fusions” value [2] was “weak activity”, the “independently validated as transactivating fragment” value [3] was 3* and the “Hit high GFP” value ([4]; high GFP population (top 1%)) was “hit”. The “logFC high GFP” value ([4]; log 2 fold change of counts, sorted high GFP cells (top 1%) vs unsorted cells, 100 μM ABA 48 hours) was 4.82, the “logFC medium GFP” value ([4]; log 2 fold change of counts, sorted medium GFP cells (top 2-5%) vs unsorted cells, 100 μM ABA 48 hours) was 2.409 and the “Hit medium GFP” value ([4]; medium GFP population (top 2-5%)) was “hit”.

Reference: patent US20240309360A1, “TRANS-ACTIVATORS AND METHODS AND USE THEREOF” (THE GOVERNING COUNCIL OF THE UNIVERSITY OF TORONTO, priority 2021, published 2024)
